Test results as given in US5428058A, “Phospholipase A2 inhibitors” (American Home Products Corporation, priority 1994, dated 1995).
Several values for one entry are separate records, joined by “and”; a condition that tells them apart may be missing. Equal entries are not always repeated.

Columns and labels:
cyclooxygenase = cyclooxygenase inhibition (PGE2 production) in resident murine peritoneal macrophages; assay type: cell-based, mouse (Swiss Webster); conditions: dose 0.5 μM; mouse macrophages, zymosan induced
Procedure: (§1) The ability of the compounds of the invention to act as inhibitors of the enzymes 5-lipoxygenase and cyclooxygenase was evaluated in the resident murine peritoneal macrophage standard pharmacological test procedure. This test procedure was carried out as follows.
(§2) Resident peritoneal macrophages were collected from female Swiss Webster mice (49 days old, 20-25 gms, Buckshire) by lavaging with 7-8 ml Hanks Balanced Salt Solution (HBSS) without Ca^++ and Mg^++ (GIBCO). The lavage fluid from several mice was pooled and centrifuged at 4° C. for 10 minutes at 400 xg. The cell pellet was resuspended in Medium 199 (GIBCO) with HEPES buffer containing 100 μg/ml gentamicin. Two ml of the cell suspension (4×10^6 cells) were then plated on 35 mm culture dishes (Nunc).
A macrophage monolayer was established after a 1-1.5 hour incubation of the cells at 37° C. in an atmosphere of […] and 5% CO2. […]
Residual serum and cellular debris were removed from the monolayers by washing 3× with 2 ml HBSS containing Ca^++ and Mg^++. […] In all cases, results are expressed as ng metabolite/4×10^6 cells.
Calculations: The raw data were converted to ng metabolite/4-10^6 cells using a standard curve. Results were then expressed as percent inhibition of zymosan induced, leukotriene or prostaglandin synthesis (control) using the following equation: [formula] […]

5-lipoxygenase = target: T1, 5-lipoxygenase (Mus musculus, UniProt P48999); experiment: 5-lipoxygenase inhibition (LTC4 production) in resident murine peritoneal macrophages; assay type: cell-based, mouse (Swiss Webster)
T1 construct: Resident peritoneal macrophages were collected from female Swiss Webster mice; endogenous in cells; host or cells: resident peritoneal macrophages of female Swiss Webster mice
T1 sequence (P48999 1-674): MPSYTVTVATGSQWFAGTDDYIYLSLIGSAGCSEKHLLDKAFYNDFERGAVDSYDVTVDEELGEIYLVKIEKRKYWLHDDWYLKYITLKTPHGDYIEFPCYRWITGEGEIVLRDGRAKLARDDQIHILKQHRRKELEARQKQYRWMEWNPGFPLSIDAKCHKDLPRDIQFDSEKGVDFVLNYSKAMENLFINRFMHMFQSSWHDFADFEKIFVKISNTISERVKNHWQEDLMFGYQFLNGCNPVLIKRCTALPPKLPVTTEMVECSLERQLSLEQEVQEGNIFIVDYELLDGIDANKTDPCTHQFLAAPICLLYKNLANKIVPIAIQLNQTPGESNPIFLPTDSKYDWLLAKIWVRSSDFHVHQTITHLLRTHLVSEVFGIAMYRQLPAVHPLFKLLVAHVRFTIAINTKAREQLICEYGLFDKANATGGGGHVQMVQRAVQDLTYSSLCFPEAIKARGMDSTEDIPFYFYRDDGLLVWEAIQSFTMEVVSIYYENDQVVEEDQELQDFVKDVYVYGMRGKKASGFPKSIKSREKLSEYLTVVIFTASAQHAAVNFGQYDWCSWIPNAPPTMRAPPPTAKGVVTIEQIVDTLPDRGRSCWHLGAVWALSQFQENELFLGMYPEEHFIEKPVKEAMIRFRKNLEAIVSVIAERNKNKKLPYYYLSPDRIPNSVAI
Procedure: as §1, §2
A macrophage monolayer was established after a 1-1.5 hour incubation of the cells at 37° C. in an atmosphere of […] and 5% CO2. The monolayers were washed 2× with 2 ml HBDSS, containing Ca^++ and Mg^++ after which 2 ml Medium 199 supplemented with 10% freshly thawed heat-inactivated fetal bovine serum and 100 μg/ml gentamicin was added for an overnight incubation.
Residual serum and cellular debris were removed from the monolayers by washing 3× with 2 ml HBSS containing Ca^++ and Mg^++. Macrophages were preincubated for 5 minutes with 1 ml serum-free M199 containing 10 μl dimethyl sulfoxide (DMSO) vehicle or test compound prior to cell activation with zymosan ([…]) or arachidonic acid (AA) (2 μM). After 2 hours, the supernatants were removed and either assayed for LTC4 and PGE2 by radioimmunoassay (RIA) directly or stored at -20° C. In all cases, results are expressed as ng metabolite/4×10^6 cells.
Calculations: The raw data were converted to ng metabolite/4-10^6 cells using a standard curve. Results were then expressed as percent inhibition of zymosan induced, leukotriene or prostaglandin synthesis (control) using the following equation: [formula] REFERENCE COMPOUNDS: The compounds used are listed below.

[1] = test system: tetradecanoylphorbol acetate (TPA) induced ear edema; experiment: tetradecanoylphorbol acetate (TPA) induced ear edema in mice; assay type: in vivo, mouse (Webster); design: activity in TPA ear edema test: dose or concentration left out as unconfirmed; conditions: for Percent Inhibition TPA Ear Edema: 30 min after TPA, measured 4 hrs after TPA
Procedure: Representative compounds of this invention were evaluated in an in vivo standard pharmacological test procedure that measured the effect of the representative compounds on dermal inflammation, as measured by the prevention of tetradecanoylphorbol acetate (TPA) induced car edema in Webster mice. This test procedure was carried out as follows.
Mice were placed into plastic boxes in groups of six. Eight groups of mice received TPA topically on the right ear. TPA was dissolved in acetone at a concentration of 100 ug/ml. TPA was applied to the right ear by the means of an automatic pipette. Volumes of 10 ul were applied to the inner and outer surfaces of the ear. Each mouse received 2 ug/ear TPA. The left ear (control) received acetone delivered in the same manner. The compounds to be evaluated were given orally 30 min after treatment with TPA.
Measurements were taken with Oditest calipers, 0-10 mm with 0.01 graduations. The right and left cars were measured 4 hrs after TPA-induced inflammation.
The difference between right and left car thickness was calculated and the significance was determined by a one way analysis of variance with Dunnet's comparisons to control (P=0.05). Drug effects are expressed as a percent change from control values according to the following formula. [formula]

[2] = mouse macrophages, zymosan induced
[3] = dose 0.1 μM, mouse macrophages, zymosan induced

| SMILES | PGE2 % Inhibition (cyclooxygenase) | inhibition at 0.5 µM (5-lipoxygenase; [2]) [%] | Percent Inhibition TPA Ear Edema ([1]; 80 mg/kg p.o.) [%] | Percent Inhibition TPA Ear Edema ([1]; 160 mg/kg p.o.) [%] | also measured |
| --- | --- | --- | --- | --- | --- |
| O=C(CC[C@@H]1CC[C@H]2CCCC[C@@H]2C1)C1=C(O)COC1=O (relative stereo) [Example 1, 3-[3-[(2α,4aα,8aβ)-Decahydro-naphthalene-2-yl]-propionyl]-4-hydroxy-2-(5H) -furanone] | 54% | 59 | 19 | 49 | – |
| O=C(CC[C@@H]1CC[C@H]2CCCC[C@@H]2C1)C1=C(O)CSC1=O (relative stereo) [Example 2, 3-[3-[(2α,4aα,8aβ)-Decahydro-naphthalene-2-yl]-propionyl]-4-hydroxy-2-(5H)thiophenone] | 80% and 85% | 92 | 21 | 66 | LTC4 % Inhibition (5-lipoxygenase; [3]): 37%; inhibition at 0.1 µM (5-lipoxygenase; [3]): 43% |
| NC1=NN(c2cccc(C(F)(F)F)c2)CC1 [BW 755c, reference compound] | – | – | – | – | ED50 ([1]; Mus musculus, 4 h, oral, TPA-induced ear edema, mice): 88 mg/kg |
| CCCCCC#CCC#CCC#CCC#CCCCC(=O)O [ETYA, reference compound] | – | – | – | – | IC50 (5-lipoxygenase): 440 nM |
| COc1ccc2c(c1)c(CC(=O)O)c(C)n2C(=O)c1ccc(Cl)cc1 [Indomethacin, reference compound] | – | – | – | – | activity in TPA ear edema test [1]: inactive |
